Earlier results as cited in US20220175776A1, “COMBINATION OF CHIR99021 AND VALPROIC ACID FOR TREATING HEARING LOSS” (Frequency Therapeutics, Inc., priority 2019, published 2022).

Experiments:
HER 2 = HER 2 (Homo sapiens, UniProt P04626); conditions: Table 13; cited from earlier work
HER 4 = HER 4 (Homo sapiens, UniProt Q15303); conditions: Table 13; cited from earlier work
gamma secretase = conditions: SH-SY5Y cells; read-out: Lit cell conc, IC50; cited from earlier work

Sequence of HER 4 (Q15303 26-1308): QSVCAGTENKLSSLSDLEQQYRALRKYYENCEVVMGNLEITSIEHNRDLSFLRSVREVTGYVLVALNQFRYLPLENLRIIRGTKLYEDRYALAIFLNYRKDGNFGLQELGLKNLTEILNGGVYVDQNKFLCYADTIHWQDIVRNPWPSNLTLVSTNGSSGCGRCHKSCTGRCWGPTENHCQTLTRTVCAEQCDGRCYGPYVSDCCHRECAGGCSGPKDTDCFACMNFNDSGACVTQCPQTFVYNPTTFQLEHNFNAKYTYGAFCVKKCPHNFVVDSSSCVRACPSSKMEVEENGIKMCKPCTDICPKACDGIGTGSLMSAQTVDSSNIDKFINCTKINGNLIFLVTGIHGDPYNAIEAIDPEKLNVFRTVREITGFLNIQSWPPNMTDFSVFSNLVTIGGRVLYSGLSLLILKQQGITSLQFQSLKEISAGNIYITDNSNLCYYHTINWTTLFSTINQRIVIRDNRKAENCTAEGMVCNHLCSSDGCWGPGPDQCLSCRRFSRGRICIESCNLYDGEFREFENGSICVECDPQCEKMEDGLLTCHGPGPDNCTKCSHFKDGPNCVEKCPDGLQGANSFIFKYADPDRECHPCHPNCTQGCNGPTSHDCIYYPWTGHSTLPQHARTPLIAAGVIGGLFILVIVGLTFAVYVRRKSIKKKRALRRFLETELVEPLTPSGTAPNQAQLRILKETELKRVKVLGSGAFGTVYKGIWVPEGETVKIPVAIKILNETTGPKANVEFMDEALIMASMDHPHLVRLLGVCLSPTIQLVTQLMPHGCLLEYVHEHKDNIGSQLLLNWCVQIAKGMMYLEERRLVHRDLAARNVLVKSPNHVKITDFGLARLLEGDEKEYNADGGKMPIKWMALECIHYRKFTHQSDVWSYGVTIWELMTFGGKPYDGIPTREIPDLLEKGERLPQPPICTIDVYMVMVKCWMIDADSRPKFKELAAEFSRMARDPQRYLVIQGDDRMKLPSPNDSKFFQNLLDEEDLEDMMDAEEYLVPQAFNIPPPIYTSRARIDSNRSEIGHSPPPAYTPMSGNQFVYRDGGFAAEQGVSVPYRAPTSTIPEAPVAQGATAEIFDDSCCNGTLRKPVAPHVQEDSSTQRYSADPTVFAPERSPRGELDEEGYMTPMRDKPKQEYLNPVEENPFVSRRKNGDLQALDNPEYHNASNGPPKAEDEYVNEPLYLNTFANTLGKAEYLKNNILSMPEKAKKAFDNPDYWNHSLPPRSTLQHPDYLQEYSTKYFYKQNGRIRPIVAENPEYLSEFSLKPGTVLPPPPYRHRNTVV
Sequence of HER 2 (P04626 23-1255): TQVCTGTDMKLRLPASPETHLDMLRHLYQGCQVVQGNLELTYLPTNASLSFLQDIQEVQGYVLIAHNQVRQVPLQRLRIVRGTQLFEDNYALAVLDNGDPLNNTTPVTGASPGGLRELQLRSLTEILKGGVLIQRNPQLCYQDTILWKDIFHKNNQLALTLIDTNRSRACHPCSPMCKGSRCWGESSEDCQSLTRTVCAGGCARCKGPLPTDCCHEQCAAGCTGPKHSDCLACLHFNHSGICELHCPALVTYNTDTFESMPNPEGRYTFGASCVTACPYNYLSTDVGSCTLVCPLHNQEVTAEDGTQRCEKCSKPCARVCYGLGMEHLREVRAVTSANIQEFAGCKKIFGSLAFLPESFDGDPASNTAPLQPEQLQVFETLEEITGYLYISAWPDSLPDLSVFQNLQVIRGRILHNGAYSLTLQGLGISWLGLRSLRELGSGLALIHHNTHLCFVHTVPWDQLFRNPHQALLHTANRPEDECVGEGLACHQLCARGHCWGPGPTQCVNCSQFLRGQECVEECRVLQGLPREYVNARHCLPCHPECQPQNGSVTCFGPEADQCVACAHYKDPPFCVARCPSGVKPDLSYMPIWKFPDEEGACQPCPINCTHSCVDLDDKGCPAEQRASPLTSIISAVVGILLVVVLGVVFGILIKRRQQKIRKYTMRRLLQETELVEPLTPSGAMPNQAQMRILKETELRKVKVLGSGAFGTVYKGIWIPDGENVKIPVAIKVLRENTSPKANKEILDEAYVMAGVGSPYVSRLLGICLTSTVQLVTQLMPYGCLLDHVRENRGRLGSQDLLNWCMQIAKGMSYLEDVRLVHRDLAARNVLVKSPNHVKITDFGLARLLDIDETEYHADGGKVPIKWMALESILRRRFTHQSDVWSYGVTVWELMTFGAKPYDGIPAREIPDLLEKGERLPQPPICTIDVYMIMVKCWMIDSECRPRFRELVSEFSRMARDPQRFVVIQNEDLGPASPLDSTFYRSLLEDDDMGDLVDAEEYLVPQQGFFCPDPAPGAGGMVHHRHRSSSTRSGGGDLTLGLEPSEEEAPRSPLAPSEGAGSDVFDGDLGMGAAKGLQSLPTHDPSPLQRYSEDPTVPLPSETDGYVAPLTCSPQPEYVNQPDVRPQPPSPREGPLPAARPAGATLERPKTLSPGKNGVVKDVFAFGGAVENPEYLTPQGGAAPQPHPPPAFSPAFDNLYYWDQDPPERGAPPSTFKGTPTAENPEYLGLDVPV

SMILES | IC50 (HER 2) [nM] | IC50 (HER 4) [nM] | IC50 (gamma secretase) [nM]
C=CC(=O)N1CCC(Oc2cc3c(Nc4ccc(Cl)c(Cl)c4F)ncnc3cc2OC)CC1 [poziotinib] | 5 | 23 | –
O=C(O)CCC1CCC(c2cc(F)ccc2F)(S(=O)(=O)c2ccc(Cl)cc2)CC1 (stereo not drawn) [MK-0572] | – | – | 5
